Experimental data: the supplement of paper PMC11061612

Columns and labels:
[1] = tested on: PC-3_[JPC-3] (Lung Adenocarcinoma); experiment: combination Emax (second highest fraction inhibited in the dose matrix, 72 h); higher = more inhibition; extreme values may be limits of the assay
Summary of the method: (§1)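 Cell lines grown in DMEM/F12 or RPMI with 10% FBS were plated in 1536-well plates and held 24 hours at 37°C, 5% CO2 before 72 hours of exposure to two-drug dose matrices, with DMSO typically at 0.2%. CellTiter-Glo 2.0 luminescence gave viability, which was converted to inhibition. Vehicle wells were set to 0 and blank wells to 1. Combination Emax is the second-highest inhibition in the matrix, and Bliss excess is the observed combination effect minus the expected EA + EB − EA·EB, where EA and EB are the single-agent effects.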

[2] = tested on: SHP-77 (Small Cell Lung Carcinoma); experiment: as above
Summary of the method: as §1

[3] = tested on: L-1236 (Hodgkin's Lymphoma); experiment: as above
Summary of the method: as §1

[4] = tested on: COLO-680N (Esophageal Squamous Cell Carcinoma); experiment: as above
Summary of the method: as §1

IST-MES1 (Mesothelioma) = experiment: Bliss excess, mean over the matrix (fraction); higher = more synergy
Summary of the method: as §1

SF539 (Glioblastoma) = experiment: as above
Summary of the method: as §1

[5] = tested on: LK-2 (Squamous Cell Lung Carcinoma); experiment: as above
Summary of the method: as §1

[6] = tested on: OVMIU (Ovarian Carcinoma); experiment: as above
Summary of the method: as §1

[7] = tested on: HSC-39 (Gastric Carcinoma); experiment: as above
Summary of the method: as §1

[8] = tested on: SHP-77 (Small Cell Lung Carcinoma); experiment: as above
Summary of the method: as §1

[9] = tested on: PSN1 (Pancreatic Carcinoma); experiment: as above
Summary of the method: as §1

[10] = tested on: MKN45 (Gastric Carcinoma); experiment: as above
Summary of the method: as §1

[11] = tested on: L-1236 (Hodgkin's Lymphoma); experiment: as above
Summary of the method: as §1

[12] = tested on: SK-PN-DW (Other Solid Carcinomas); experiment: as above
Summary of the method: as §1

[13] = tested on: PANC-03-27 (Pancreatic Carcinoma); experiment: as above
Summary of the method: as §1

[14] = tested on: VAL (B-Cell Non-Hodgkin's Lymphoma); experiment: as above
Summary of the method: as §1

[15] = tested on: REH (B-Lymphoblastic Leukemia); experiment: as above
Summary of the method: as §1

[16] = tested on: COLO-680N (Esophageal Squamous Cell Carcinoma); experiment: as above
Summary of the method: as §1

SK-MEL-2 (Melanoma) = experiment: as above
Summary of the method: as §1

NB12 (Neuroblastoma) = experiment: as above
Summary of the method: as §1
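Wherever Bliss excess, mean over the matrix is given: after 72 h of two-drug dosing.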

Row | SMILES | combination Emax [1] | combination Emax [2] | combination Emax [3] | combination Emax [4] | Bliss excess (IST-MES1 (Mesothelioma)) | Bliss excess (SF539 (Glioblastoma)) | Bliss excess [5] | Bliss excess [6] | Bliss excess [7] | Bliss excess [8] | Bliss excess [9] | Bliss excess [10] | Bliss excess [11] | Bliss excess [12] | Bliss excess [13] | Bliss excess [14] | Bliss excess [15] | Bliss excess [16] | Bliss excess (SK-MEL-2 (Melanoma)) | Bliss excess (NB12 (Neuroblastoma))
1 | C=CCn1c(=O)c2cnc(Nc3ccc(N4CCN(C)CC4)cc3)nc2n1-c1cccc(C(C)(C)O)n1 [AZD1775] + CCc1c2c(nc3ccc(O)cc13)-c1cc3c(c(=O)n1C2)COC(=O)[C@]3(O)CC [SN-38] (first compound max 1 µM, partner max 0.3 µM) | 0.736 | 0.651 | 0.969 | 0.483 | 0.0008 | -0.0037 | 0.0768 | -0.055 | -0.0065 | -0.0315 | -0.0499 | -0.0893 | -0.0372 | -0.0903 | -0.0585 | -0.0619 | -0.0887 | -0.0066 | 0.0426 | -0.0514
2 | C=CCn1c(=O)c2cnc(Nc3ccc(N4CCN(C)CC4)cc3)nc2n1-c1cccc(C(C)(C)O)n1 [AZD1775] + Nc1ccn([C@@H]2O[C@H](CO)[C@@H](O)C2(F)F)c(=O)n1 [Gemcitabine] (first compound max 1 µM, partner max 0.3 µM) | 0.574 | 0.676 | 0.954 | 0.419 | 0.0603 | 0.0282 | 0.117 | -0.025 | 0.0379 | 0.0032 | 0.0451 | -0.116 | -0.0076 | -0.0347 | -0.0383 |  | -0.0139 | 0.0195 | -0.0156 | 0.0471
3 | CN(CCO)CC[C@H](CSc1ccccc1)Nc1ccc(S(=O)(=O)NC(=O)c2ccc(N3CCC([C@@H](O)c4ccccc4-c4ccc(Cl)cc4)CC3)cc2)cc1S(=O)(=O)C(F)(F)F [AZD4320] + CC(=O)O[C@H]1C(=O)[C@@]2(C)[C@H]([C@H](OC(=O)c3ccccc3)[C@]3(O)C[C@H](OC(=O)[C@H](O)[C@@H](NC(=O)c4ccccc4)c4ccccc4)C(C)=C1C3(C)C)[C@]1(OC(C)=O)CO[C@@H]1C[C@@H]2O [Paclitaxel] (first compound max 1 µM, 7x7, partner max 3 µM) | 0.76 | 1 | 1 | 0.771 | 0.0787 | 0.0404 | 0.0318 | 0.0232 | 0.0069 | -0.0369 | 0.0166 | -0.121 | 0.0186 | 0.0738 | 0.0599 | 0.0018 | 0.0132 | 0.092 | 0.148 | 0.0333
4 | CN(CCO)CC[C@H](CSc1ccccc1)Nc1ccc(S(=O)(=O)NC(=O)c2ccc(N3CCC([C@@H](O)c4ccccc4-c4ccc(Cl)cc4)CC3)cc2)cc1S(=O)(=O)C(F)(F)F [AZD4320] + CS(=O)(=O)CCNCc1ccc(-c2ccc3ncnc(Nc4ccc(OCc5cccc(F)c5)c(Cl)c4)c3c2)o1 [Lapatinib] (first compound max 1 µM, 7x7, partner max 10 µM) | 0.912 | 0.969 | 1 | 0.481 | 0.0367 | -0.0026 | 0.0876 | 0.106 | 0.0057 | 0.159 | -0.0405 | -0.0888 | -0.0252 | -0.0829 | 0.023 | 0.0503 | 0.0721 | -0.0042 | -0.0501 | 0.0902
5 | CN(CCO)CC[C@H](CSc1ccccc1)Nc1ccc(S(=O)(=O)NC(=O)c2ccc(N3CCC([C@@H](O)c4ccccc4-c4ccc(Cl)cc4)CC3)cc2)cc1S(=O)(=O)C(F)(F)F [AZD4320] + Nc1ccn([C@@H]2O[C@H](CO)[C@@H](O)C2(F)F)c(=O)n1 [Gemcitabine] (first compound max 1 µM, 7x7, partner max 0.3 µM) | 0.675 | 0.549 | 1 | 0.3 | 0.0448 | -0.0356 | 0.083 | 0.0028 | -0.0867 | 0.0333 | -0.0027 | -0.0393 | -0.0377 | -0.0422 | -0.0203 | -0.0044 | 0.0126 | -0.08 | -0.0453 | 0.0268
6 | Cc1c2c(nn1C)CSCc1cc(n(C)n1)CSc1cc(c3ccccc3c1)OCCCc1c(C(=O)O)n(C)c3c-2c(Cl)ccc13 [AZD5991] + CC(=O)O[C@H]1C(=O)[C@@]2(C)[C@H]([C@H](OC(=O)c3ccccc3)[C@]3(O)C[C@H](OC(=O)[C@H](O)[C@@H](NC(=O)c4ccccc4)c4ccccc4)C(C)=C1C3(C)C)[C@]1(OC(C)=O)CO[C@@H]1C[C@@H]2O [Paclitaxel] (first compound max 1 µM, 7x7, partner max 3 µM) | 0.58 | 0.971 | 0.846 | 0.476 | -0.007 | 0.0053 | 0.0165 | 0.0231 | 0.0078 | -0.0043 | 0.0098 | -0.0238 | -0.0631 | -0.0012 | 0.0181 | -0.0913 | -0.0011 | 0.0107 | -0.0341 | -0.0424
7 | Cc1c2c(nn1C)CSCc1cc(n(C)n1)CSc1cc(c3ccccc3c1)OCCCc1c(C(=O)O)n(C)c3c-2c(Cl)ccc13 [AZD5991] + CS(=O)(=O)CCNCc1ccc(-c2ccc3ncnc(Nc4ccc(OCc5cccc(F)c5)c(Cl)c4)c3c2)o1 [Lapatinib] (first compound max 1 µM, 7x7, partner max 10 µM) | 0.833 | 0.42 | 0.798 | 0.291 | 0.0139 | 0.0226 | -0.019 | 0.0371 | -0.0305 | 0.0045 | -0.045 | -0.146 | 0.102 | 0.0081 | -0.0485 | -0.137 | -0.038 | -0.011 | -0.0147 | -0.0394
8 | Cc1c2c(nn1C)CSCc1cc(n(C)n1)CSc1cc(c3ccccc3c1)OCCCc1c(C(=O)O)n(C)c3c-2c(Cl)ccc13 [AZD5991] + Nc1ccn([C@@H]2O[C@H](CO)[C@@H](O)C2(F)F)c(=O)n1 [Gemcitabine] (first compound max 1 µM, 7x7, partner max 0.3 µM) | 0.58 | 0.595 | 0.806 | 0.365 | -0.0208 | 0.0133 | 0.0117 | -0.0823 | 0.006 | 0.0181 | -0.0486 | -0.0655 | -0.0646 | 0.008 | 0.0182 | -0.0324 | -0.0103 | -0.0215 | -0.0657 | 0.0008
9 | C[C@@H]1COCCN1c1cc(C2([S@](C)(=N)=O)CC2)nc(-c2ccnc3[nH]ccc23)n1 [AZD6738] + C1CC(C1)(C(=O)[O-])C(=O)[O-].N.N.[Pt+2] [Carboplatin] (first compound max 10 µM, 7x7, partner max 10 µM) | 0.294 | 0.506 | 0.807 | 0.287 | -0.0502 | -0.0835 | -0.04 | -0.0369 | -0.0265 | 0.0138 | -0.0278 | -0.104 | -0.0366 | -0.0517 | -0.0554 | -0.0465 | 0.0175 | -0.0073 | -0.005 | -0.0444
10 | C[C@@H]1COCCN1c1cc(C2([S@](C)(=N)=O)CC2)nc(-c2ccnc3[nH]ccc23)n1 [AZD6738] + Nc1ccn([C@@H]2O[C@H](CO)[C@@H](O)C2(F)F)c(=O)n1 [Gemcitabine] (first compound max 10 µM, 7x7, partner max 0.3 µM) | 0.665 | 0.931 | 0.918 | 0.529 | -0.0097 | 0.0251 | 0.128 | -0.0138 | -0.0049 | 0.0746 | 0.0209 | -0.0824 | 0.0294 | -0.0579 | -0.0185 | -0.108 | 0.0497 | 0.0393 | 0.0586 | -0.012
11 | Cc1cc2ncnn2cc1Nc1ncc2c(n1)n(C1CCOCC1)c(=O)n2C [AZD7648] + COc1cc([C@@H]2c3cc4c(cc3[C@@H](O[C@@H]3O[C@@H]5CO[C@@H](C)O[C@H]5[C@H](O)[C@H]3O)[C@H]3COC(=O)[C@H]23)OCO4)cc(OC)c1O [Etoposide] (first compound max 10 µM, 7x7, partner max 10 µM) | 0.415 | 0.546 | 0.845 | 0.404 | 0.116 | 0.136 | 0.0713 | 0.0243 | 0.0582 | 0.0139 | 0.0771 | -0.0126 | 0.0004 | 0.184 | -0.0401 | -0.0395 | 0.158 | 0.0384 | -0.0163 | 0.121
12 | C[C@@H](Nc1cc(F)cc(F)c1)c1cc(C(=O)N(C)C)cc2c(=O)cc(N3CCOCC3)oc12 [AZD8186] + C1CN(CCC1(C(=O)N[C@@H](CCO)C2=CC=C(C=C2)Cl)N)C3=NC=NC4=C3C=CN4 [AZD5363] (first compound max 10 µM, 7x7, partner max 10 µM) | 0.295 | 0.275 | 0.722 | 0.245 | -0.0703 | 0.0225 | 0.0061 | -0.0719 | -0.0271 | -0.0913 | -0.0065 | -0.038 | -0.0371 | -0.0137 | -0.0239 | -0.0608 | -0.023 | -0.0335 | -0.0285 | -0.0305
13 | N#Cc1cnc(Nc2cc(NC[C@H]3CNCCO3)c(C(F)(F)F)cn2)cn1 [SRA737] + O=c1[nH]cc(F)c(=O)[nH]1 [5-Fluorouracil] (first compound max 10 µM, 7x7, partner max 20 µM) | 0.102 | 0.786 | 0.94 | 0.387 | -0.0169 | 0.0471 | 0.0756 | -0.0569 | -0.0252 | 0.0009 | 0.0184 | -0.0689 | -0.0358 | 0.0243 | 0.0112 |  | 0.0356 |  | -0.025 | -0.0626
